Here are results for one compound from patent publication US20250032629A1, “NOVEL NUCLEOLIN-BINDING PEPTIDE AND USE THEREOF” (ANYGEN CO., LTD., priority 2020, published 2025).

SMILES strings stand for the structures.

As usually defined, the IC50 is the concentration that gives 50% inhibition. The low end stands for greater potency in that assay, the high end for weaker potency in that assay.

One test has as its system MCF-10A cells. The experiment in a line: Cell proliferation assay (WST-1), AGM-330-PTX. The test is classed as cell-based. As to conditions: Homo sapiens, 48 h. Background: Formazan colour is commonly taken as a measure of viable cells.
In the next test the test system is MDA-MB-231-luc cells. The test is described as follows: Tumor suppression in breast cancer xenograft model. The note with it: for average tumor volume: tail vein. The test is classed as in vivo, NPG mice. On the procedure:
FIG. 14B is a schematic representation of the experimental protocol. Here, anesthetized 6-week-old […] NPG mice were inoculated with a 1:1 mix of Matrigel and 1×10^6 MDA-MB-231-luc cells into the mammary fat pad. […] Nuclei were stained with DAPI (blue), and the scale bar is 50 μm. Bar graphs represent the mean±SD, and statistical analyses were performed by one-way ANOVA with Dunnett's multiple comparison. *, **, and *** indicate P<0.05, P<0.01, and P<0.001, respectively. […]
All animal experiments were performed in accordance with IACUC guidelines (GIST-2019-040). For tumorigenesis experiments, anesthetized 6-week-old female NOD-scid Il2rg^−/− mice (NPG™, VITALSTAR) were inoculated in the mammary fat pad with 1×10^6 MDA-MB-231-luc cells in a volume of 100 μl (n=5˜6 for each group). After tumor cell inoculation, when the tumor volume reached approximately 100 mm^3, the mice were randomly divided into the following five groups: (i) control, (ii) low-dose paclitaxel (2 mg/kg), (iii) high-dose paclitaxel (10 mg/kg), (iv) AGM-330 (16.68 mg/kg or 8.34 mg/kg), and (v) AGM-330-PTX (19.05 mg/kg or 10.71 mg/kg). The tumor size was measured twice a week, and the tumor volume was calculated with the following formula:
For the bioluminescent imaging experiment, D-luciferin (150 mg/kg; PerkinElmer) was intraperitoneally injected into each mouse, and an IVIS 100 imaging system (Xenogen, Corporation, Alameda, CA) was used for bioluminescent monitoring. Mice were anesthetized with vaporized isoflurane (BK Pharm, Ilsan, Korea) and placed in an imaging chamber. After 10 min, each animal was imaged with an exposure time of 1 min. All bioluminescent image data were provided by Living Image software (version 4.5.2, PerkinElmer). Photons detected from tumors were converted to average radiance values (photon/see/cm^2/sr), which are quantitative data obtained from a region of intensity (ROI) and include the photons emitted by bioluminescent cells from an assigned rectangular area over the whole body of each mouse.
Following in vitro proliferation analysis on cancer lines, the present inventors investigated whether AGM-330t-PTX could be a potential therapeutic agent in vivo. The present inventors inoculated MDA-MB-231-luc cells into the mammary fat pad of NPG mice. After the subcutaneous tumors grew to 100 mm^3, comparative efficacy studies were performed by dividing the animals into five groups (n=5/group) treated with vehicle (PBS), AGM-330t (16.68 mg/kg), PTX (2 or 10 mg/kg, respectively) or AGM-330t-PTX (19.05 mg/kg) twice a week by tail vein injection (FIG. 14B). Tumor growth was monitored by measuring volumes twice a week with a caliber rule over the course of 3 weeks.
The present inventors also performed histological staining of the excised tumors, and an independent pathologist evaluated the slides.

In the test with MCF-10A cells, `CC(=O)O[C@H]1C(=O)[C@@]2(C)[C@H]([C@H](OC(=O)c3ccccc3)[C@]3(O)C[C@H](OC(=O)[C@H](O)[C@@H](NC(=O)c4ccccc4)c4ccccc4)C(C)=C1C3(C)C)[C@]1(OC(C)=O)CO[C@@H]1C[C@@H]2O` [PTX, Paclitaxel, reference compound] displayed an IC50 of 22.1 µM. For the same compound, the average tumor volume is 1671±199 mm^3 in the test on MDA-MB-231-luc cells (2 mg/kg twice a week, n=5) and 988±78 mm^3 in the test on MDA-MB-231-luc cells (10 mg/kg twice a week, day 21, n=5). The “final average tumor weight” value in the test with MDA-MB-231-luc cells (2 mg/kg, n=5) turned out to be 2.1 ± 0.4 g; with MDA-MB-231-luc cells (10 mg/kg, n=5), 1.5 ± 0.1 g.
